In ChEMBL document CHEMBL1201862, “PubChem BioAssay data set” (2004):
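Where inhibition never reached the appropriate level, the endpoint shown equals the highest concentration tested. Otherwise, values were interpolated linearly from a five-concentration, 48-hour dose response in 96-well plates. At the GI50, growth is halved.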 Activity calls are given as the source filed them. Rule as the data show it: active = GI50 up to about 1.1 µM and inactive = higher.

Assays:
Assay in all cases: inhibition of tumour cell growth, NCI panel, 48 h
SK-MEL-2 = tested on: SK-MEL-2
CAKI-1 = tested on: CAKI-1
SW-620 = tested on: SW-620
SN12C = tested on: SN12C
SR = tested on: SR
786-0 = tested on: 786-0
HOP-62 = tested on: HOP-62
HCT-116 = tested on: HCT-116
T47D = tested on: T47D
M14 = tested on: M14
MOLT-4 = tested on: MOLT-4
DU-145 = tested on: DU-145
A549 = tested on: A549
UACC-62 = tested on: UACC-62
SK-OV-3 = tested on: SK-OV-3
MDA-N = tested on: MDA-N
PC-3 = tested on: PC-3
MDA-MB-231 = tested on: MDA-MB-231
NCI-H460 = tested on: NCI-H460

Measured: GI50

CCC(=O)Nc1ccc(NCC(=O)Nc2ccc(Cl)cc2)cc1
inactive: SK-MEL-2 14.8 µM | CAKI-1 14.3 µM | SW-620 24.7 µM | SN12C 17.1 µM | SR 21.3 µM | 786-0 17.2 µM | HOP-62 13.7 µM | HCT-116 14.4 µM | T47D 12.8 µM | M14 15.3 µM | MOLT-4 21 µM | DU-145 17.9 µM | A549 19.7 µM | UACC-62 12.4 µM | SK-OV-3 16.9 µM | MDA-N 17.2 µM | PC-3 15.1 µM

O=C1N(CN2CCOCC2)CN(CN2CCOCC2)C(=O)N1Cc1ccc(-c2ccc(CN3C(=O)N(CN4CCOCC4)CN(CN4CCOCC4)C3=O)cc2)cc1
inactive: SK-MEL-2 6.55 µM | CAKI-1 14.2 µM | SW-620 8.38 µM | SR 2.08 µM | 786-0 9.16 µM | HOP-62 21.6 µM | HCT-116 7.6 µM | T47D 24 µM | M14 5.53 µM | MOLT-4 4.19 µM | DU-145 16.8 µM | MDA-MB-231 26.5 µM | A549 20.8 µM | UACC-62 9.75 µM | SK-OV-3 32.9 µM | NCI-H460 15.9 µM | PC-3 20.8 µM

N=C(N)C(/N=N\c1ccccc1)C(=N)N (stereo not given)
inactive: SK-MEL-2 23.4 µM | CAKI-1 38.4 µM | SW-620 34.4 µM | SN12C 36.6 µM | 786-0 35.6 µM | HOP-62 61.7 µM | HCT-116 33.5 µM | T47D 46.3 µM | M14 40.7 µM | MOLT-4 30.5 µM | DU-145 > 100 µM | MDA-MB-231 15.3 µM | A549 49.9 µM | UACC-62 34.5 µM | SK-OV-3 64.6 µM | NCI-H460 32.1 µM | MDA-N 19.5 µM | PC-3 31.8 µM

CCOc1ccc(NC(=O)/C(=N\N)C(C(=O)OC)c2nc3ccc(Cl)cc3nc2O)cc1 (stereo not given)
inactive: SK-MEL-2 > 100 µM | CAKI-1 > 100 µM | SW-620 > 100 µM | SN12C > 100 µM | SR 21.7 µM | 786-0 > 100 µM | HOP-62 > 100 µM | HCT-116 > 100 µM | T47D > 100 µM | M14 > 100 µM | MDA-MB-231 > 100 µM | A549 > 100 µM | UACC-62 > 100 µM | SK-OV-3 > 100 µM | NCI-H460 > 100 µM | PC-3 > 100 µM

COC(=O)c1ccccc1/C=C1\Cc2c(C)c3c(c(C)c2C1=O)CCC3
inactive: SK-MEL-2 6.27 µM | CAKI-1 > 100 µM | SW-620 > 100 µM | SN12C > 100 µM | SR > 100 µM | 786-0 46.6 µM | HOP-62 > 100 µM | HCT-116 > 100 µM | T47D > 100 µM | M14 > 100 µM | MOLT-4 > 100 µM | DU-145 > 100 µM | A549 > 100 µM | UACC-62 > 100 µM | NCI-H460 > 100 µM | MDA-N > 100 µM | PC-3 > 100 µM

Cc1cc(OC(=O)Nc2ccc(Cl)cc2)ccc1C(=S)Nc1ccccc1
inactive: SK-MEL-2 66.2 µM | CAKI-1 31.8 µM | SW-620 > 100 µM | SN12C > 100 µM | SR 64.3 µM | 786-0 80 µM | HOP-62 > 100 µM | HCT-116 28.6 µM | T47D 34.2 µM | M14 12.6 µM | MOLT-4 29.6 µM | A549 50.2 µM | UACC-62 3.85 µM | SK-OV-3 > 100 µM | NCI-H460 18.5 µM | MDA-N 71.3 µM | PC-3 > 100 µM

CCc1n[nH]c(=O)n1CCCCCCCCCCCCn1c(CC)n[nH]c1=O
inactive: SK-MEL-2 52.8 µM | CAKI-1 27.7 µM | SW-620 37.2 µM | SN12C 59.8 µM | SR 19.2 µM | 786-0 35.5 µM | HOP-62 56.6 µM | HCT-116 27 µM | T47D 18 µM | M14 25.9 µM | MOLT-4 22.5 µM | MDA-MB-231 28.1 µM | A549 27.9 µM | UACC-62 18.3 µM | SK-OV-3 62.4 µM | NCI-H460 26.6 µM | MDA-N 32.1 µM | PC-3 27.5 µM

COc1ccc2[nH]cc(CCNC(=O)[C@H](Cc3ccc(O)cc3)NC(=O)[C@@H](NCC(F)(F)F)C(C)C)c2c1
inactive: SK-MEL-2 58.2 µM | SW-620 > 100 µM | SN12C > 100 µM | SR > 100 µM | 786-0 > 100 µM | HOP-62 > 100 µM | HCT-116 95.5 µM | M14 > 100 µM | MOLT-4 68.5 µM | DU-145 > 100 µM | MDA-MB-231 > 100 µM | A549 45.7 µM | UACC-62 > 100 µM | SK-OV-3 > 100 µM | NCI-H460 48 µM | MDA-N 45.1 µM | PC-3 > 100 µM

CCCSc1ccc2[nH]c(/N=C/c3ccccc3)cc2c1
inactive: SK-MEL-2 16.6 µM | CAKI-1 19.4 µM | SW-620 23.1 µM | SN12C 27.3 µM | SR 3.51 µM | 786-0 19.1 µM | HCT-116 17.7 µM | T47D 48 µM | M14 25.5 µM | MOLT-4 13.7 µM | DU-145 30.5 µM | UACC-62 17.4 µM | MDA-N 7.67 µM | PC-3 34.1 µM

CC1(C)CCC2(C(=O)OC3OC(CO)C(O)C(O)C3O)CCC3(C)C(=CCC4C5(C)CCC(OC6OC(CO)C(O)C(O)C6O)C(C)(C)C5CCC43C)C2C1 (stereo not given)
inactive: SK-MEL-2 5.45 µM | CAKI-1 > 25 µM | SW-620 8.83 µM | SN12C 10.9 µM | SR 3.89 µM | 786-0 17.3 µM | HOP-62 > 25 µM | HCT-116 8.61 µM | T47D 6.4 µM | M14 14.8 µM | MOLT-4 7.26 µM | DU-145 > 25 µM | MDA-MB-231 9.98 µM | A549 > 25 µM | UACC-62 8.67 µM | SK-OV-3 > 25 µM | NCI-H460 6.59 µM | PC-3 13.6 µM

COc1cc(O)c2c(=O)cc(-c3ccc(O)cc3O)oc2c1CC=C(C)C [ARTOCARPETIN A]
inactive: SK-MEL-2 17.2 µM | CAKI-1 17.1 µM | SW-620 24.3 µM | SN12C 16.4 µM | SR 4.5 µM | 786-0 26.6 µM | HCT-116 18.1 µM | M14 13.8 µM | MOLT-4 8.93 µM | DU-145 30.2 µM | MDA-MB-231 22.1 µM | A549 14.2 µM | UACC-62 20 µM | NCI-H460 14.3 µM | MDA-N 19.3 µM | PC-3 12.9 µM
